Measurements taken from patent publication US11859169B2, “Nano-ligand for promoting cell adhesion and regeneration of macrophages and method of promoting cell adhesion and regeneration of macrophages by using the same” (Korea University Research and Business Foundation, priority 2020, dated 2024).

Test system: Macrophages (RAW 264.7)
Test: adhesion structure assembly-mediated M2 phenotype under ROCK, myosin II or actin polymerization inhibition
Type: cell-based
Conditions: M2-polarizing medium; for reduction of Arg-1 immunofluorescence on the magnet side / reduction of adherent macrophage area on the magnet side / reduction of adherent macrophage aspect ratio on the magnet side: 36 hours, 50 μM Y27632, 10 μM blebbistatin

Compound	reduction of Arg-1 immunofluorescence on the magnet side	reduction of adherent macrophage area on the magnet side	reduction of adherent macrophage aspect ratio on the magnet side	decreases in the area, aspect ratio, and Arg-1 fluorescence of the adherent macrophages (2 μg/mL cytochalasin D)
C[C@@H](N)[C@H]1CC[C@H](C(=O)Nc2ccncc2)CC1 [Y27632]	29%	32%	33%	
Cc1ccc2c(c1)C(=O)C1(O)CCN(c3ccccc3)C1=N2 (stereo not shown) [blebbistatin]	29%	33%	31%	
C=C1[C@@H](C)[C@H]2[C@H](Cc3ccccc3)NC(=O)[C@]23[C@H](OC(C)=O)/C=C/[C@@](C)(O)C(=O)[C@@H](C)C/C=C/[C@H]3[C@@H]1O [cytochalasin D]				clearly observed
